Experimental data published in PubChem BioAssay AID180 (DTP/NCI, 2004).
Several values for one entry are separate records, joined by “and”; a condition that tells them apart may be missing. Equal values may be shown once.

System: BDF1 mice, Adenocarcinoma 755 s.c., tumor weight T/C
Assay: NCI In Vivo Anticancer Drug Screen. Data for tumor model Adenocarcinoma 755 (subcutaneous) in B6D2F1 (BDF1) mice
Conditions: endpoint: mean tumor weight, higher = larger tumour
Procedure, shortened: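 Readout: T/C, i.e. treated-group measurement over vehicle-control measurement. Endpoint is survival or tumor size in tumor-bearing mice given compound.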

[1] = dose: 50.0 mg/kg/injection, schedule: Q01DX011 (ip), vehicle: methylcellulose (MC)
[2] = dose: 100.0 mg/kg/injection, schedule: Q01DX011 (ip), vehicle: methylcellulose (MC)

COc1ccc(C[C@H](N)C(=O)NC2C(CO)OC(n3cnc4c(N(C)C)ncnc43)C2O)cc1 (some centres undefined)
T/C (dose: 9.94 mg/kg/injection, schedule: Q01DX011 (ip), vehicle: carboxymethylcellulose (CMC)): 104 % of control | T/C (dose: 13.25 mg/kg/injection, schedule: Q01DX011 (ip), vehicle: carboxymethylcellulose (CMC)): 119 % of control | T/C (dose: 17.06 mg/kg/injection, schedule: Q01DX011 (ip), vehicle: carboxymethylcellulose (CMC)): 73 % of control | T/C (dose: 19.88 mg/kg/injection, schedule: Q01DX011 (ip), vehicle: carboxymethylcellulose (CMC)): 174 % of control | T/C (dose: 23.0 mg/kg/injection, schedule: Q01DX011 (ip), vehicle: carboxymethylcellulose (CMC)): 67 % of control | T/C (dose: 26.5 mg/kg/injection, schedule: Q01DX011 (ip), vehicle: carboxymethylcellulose (CMC)): 70 % of control | T/C (dose: 31.8 mg/kg/injection, schedule: Q01DX011 (ip), vehicle: carboxymethylcellulose (CMC)): 47 % of control and 48 % of control | T/C (dose: 34.13 mg/kg/injection, schedule: Q01DX011 (ip), vehicle: carboxymethylcellulose (CMC)): 57 % of control | T/C (dose: 45.0 mg/kg/injection, schedule: Q01DX011 (ip), vehicle: carboxymethylcellulose (CMC)): 70 % of control | T/C (dose: 68.25 mg/kg/injection, schedule: Q01DX011 (ip), vehicle: carboxymethylcellulose (CMC)): 50 % of control | T/C (dose: 79.5 mg/kg/injection, schedule: Q01DX011 (ip), vehicle: carboxymethylcellulose (CMC)): 14 % of control | T/C (dose: 90.0 mg/kg/injection, schedule: Q01DX011 (ip), vehicle: carboxymethylcellulose (CMC)): 51 % of control

CC1(C)O[C@@H]2C[C@H]3[C@@H]4CCC5=CC(=O)C=C[C@]5(C)[C@@]4(F)[C@@H](O)C[C@]3(C)[C@]2(C(=O)CO)O1
T/C (dose: 0.7 mg/kg/injection, schedule: Q01DX011 (sc), vehicle: steriod suspending solution): 38 % of control | T/C (dose: 3.0 mg/kg/injection, schedule: Q01DX011 (sc), vehicle: steriod suspending solution): 53 % of control | T/C (dose: 6.0 mg/kg/injection, schedule: Q01DX011 (sc), vehicle: steriod suspending solution): 40 % of control

CCCCn1cnc2c(SCc3ccc(Br)cc3)nc(N)nc21
T/C (dose: 12.5 mg/kg/injection, schedule: Q01DX011 (ip), vehicle: methylcellulose (MC)): 47 % of control | T/C (dose: 25.0 mg/kg/injection, schedule: Q01DX011 (ip), vehicle: methylcellulose (MC)): 66 % of control | T/C [1]: 82 % of control | T/C [2]: 49 % of control

CN(C)CCCN1c2ccccc2Sc2ccc(Cl)cc21
T/C (dose: 11.25 mg/kg/injection, schedule: Q01DX011 (ip), vehicle: methylcellulose (MC)): 44 % of control | T/C (dose: 11.25 mg/kg/injection, schedule: Q01DX011 (ip), vehicle: saline): 59 % of control | T/C (dose: 22.5 mg/kg/injection, schedule: Q01DX011 (ip), vehicle: methylcellulose (MC)): 28 % of control | T/C (dose: 22.5 mg/kg/injection, schedule: Q01DX011 (ip), vehicle: saline): 47 % of control | T/C (dose: 45.0 mg/kg/injection, schedule: Q01DX011 (ip), vehicle: methylcellulose (MC)): 33 % of control | T/C (dose: 45.0 mg/kg/injection, schedule: Q01DX011 (ip), vehicle: saline): 38 % of control | T/C (dose: 90.0 mg/kg/injection, schedule: Q01DX011 (ip), vehicle: methylcellulose (MC)): 25 % of control

CCCCCCCCOP(=O)(N1CC1)N1CC1
T/C (dose: 0.1 mg/kg/injection, schedule: Q01DX011 (ip), vehicle: saline): 75 % of control and 79 % of control | T/C (dose: 0.2 mg/kg/injection, schedule: Q01DX011 (ip), vehicle: saline): 65 % of control and 80 % of control | T/C (dose: 1.0 mg/kg/injection, schedule: Q01DX011 (ip), vehicle: saline): 29 % of control | T/C (dose: 2.0 mg/kg/injection, schedule: Q01DX011 (ip), vehicle: saline): 57 % of control and 66 % of control | T/C (dose: 4.5 mg/kg/injection, schedule: Q01DX011 (ip), vehicle: saline): 56 % of control and 66 % of control

CC(=O)[C@@]1(O)[C@H](C)C[C@H]2[C@@H]3C=C(C)C4=Cc5c(cnn5-c5ccccc5)C[C@]4(C)[C@H]3[C@@H](O)C[C@@]21C
T/C (dose: 0.01 mg/kg/injection, schedule: Q01DX011 (sc), vehicle: steriod suspending solution): 70 % of control | T/C (dose: 0.03 mg/kg/injection, schedule: Q01DX011 (sc), vehicle: steriod suspending solution): 43 % of control | T/C (dose: 0.05 mg/kg/injection, schedule: Q01DX011 (sc), vehicle: steriod suspending solution): 41 % of control | T/C (dose: 0.2 mg/kg/injection, schedule: Q01DX011 (sc), vehicle: steriod suspending solution): 27 % of control and 44 % of control | T/C (dose: 0.3 mg/kg/injection, schedule: Q01DX011 (sc), vehicle: steriod suspending solution): 14 % of control and 28 % of control | T/C (dose: 0.5 mg/kg/injection, schedule: Q01DX011 (sc), vehicle: steriod suspending solution): 33 % of control | T/C (dose: 30.0 micrograms/kg/injection, schedule: Q01DX011 (ip), vehicle: saline): 115 % of control | T/C (dose: 60.0 micrograms/kg/injection, schedule: Q01DX011 (ip), vehicle: saline): 115 % of control | T/C (dose: 120.0 micrograms/kg/injection, schedule: Q01DX011 (ip), vehicle: saline): 105 % of control

O=C(NCCCl)N1CCN(C(=O)NCCCl)CC1
T/C [1]: 55 % of control | T/C [2]: 67 % of control | T/C (dose: 200.0 mg/kg/injection, schedule: Q01DX011 (ip), vehicle: methylcellulose (MC)): 39 % of control | T/C (dose: 400.0 mg/kg/injection, schedule: Q01DX011 (ip), vehicle: methylcellulose (MC)): 24 % of control

C[C@H]1C[C@@H]2[C@H]([C@@H](O)C[C@@]3(C)[C@H]2CC[C@]3(O)C(=O)CO)[C@@]2(C)C=CC(=O)C=C12
T/C (dose: 14.3 mg/kg/injection, schedule: Q01DX011 (sc), vehicle: steriod suspending solution): 21 % of control | T/C (dose: 14.3 mg/kg/injection, schedule: Q01DX011 (sc), vehicle: water): 48 % of control and 56 % of control | T/C (dose: 28.5 mg/kg/injection, schedule: Q01DX011 (sc), vehicle: steriod suspending solution): 8 % of control | T/C (dose: 28.5 mg/kg/injection, schedule: Q01DX011 (sc), vehicle: water): 25 % of control and 47 % of control | T/C (dose: 57.0 mg/kg/injection, schedule: Q01DX011 (sc), vehicle: steriod suspending solution): 1 % of control | T/C (dose: 57.0 mg/kg/injection, schedule: Q01DX011 (sc), vehicle: water): 5 % of control and 29 % of control | T/C (dose: 114.0 mg/kg/injection, schedule: Q01DX011 (sc), vehicle: steriod suspending solution): 1 % of control | T/C (dose: 114.0 mg/kg/injection, schedule: Q01DX011 (sc), vehicle: water): 3 % of control

CCCCNc1nc(N)nc2c1nnn2CCCC
T/C (dose: 62.0 mg/kg/injection, schedule: Q01DX011 (ip), vehicle: methylcellulose (MC)): 54 % of control | T/C (dose: 125.0 mg/kg/injection, schedule: Q01DX011 (ip), vehicle: methylcellulose (MC)): 78 % of control | T/C (dose: 250.0 mg/kg/injection, schedule: Q01DX011 (ip), vehicle: methylcellulose (MC)): 45 % of control

c1nc(SC2=NCCN2)c2[nH]cnc2n1
T/C (dose: 0.22 mg/kg/injection, schedule: Q01DX011 (ip), vehicle: saline): 104 % of control | T/C (dose: 0.45 mg/kg/injection, schedule: Q01DX011 (ip), vehicle: saline): 72 % of control | T/C (dose: 0.45 mg/kg/injection, schedule: Q01DX011 (oral), vehicle: saline): 100 % of control | T/C (dose: 0.65 mg/kg/injection, schedule: Q01DX011 (ip), vehicle: saline): 71 % of control | T/C (dose: 0.9 mg/kg/injection, schedule: Q01DX011 (ip), vehicle: saline): 61 % of control | T/C (dose: 0.9 mg/kg/injection, schedule: Q01DX011 (oral), vehicle: saline): 73 % of control | T/C (dose: 1.3 mg/kg/injection, schedule: Q01DX011 (ip), vehicle: saline): 74 % of control | T/C (dose: 1.8 mg/kg/injection, schedule: Q01DX011 (ip), vehicle: saline): 15 % of control | T/C (dose: 1.8 mg/kg/injection, schedule: Q01DX011 (oral), vehicle: saline): 48 % of control | T/C (dose: 2.6 mg/kg/injection, schedule: Q01DX011 (ip), vehicle: saline): 23 % of control | T/C (dose: 2.62 mg/kg/injection, schedule: Q01DX011 (ip), vehicle: saline): 4 % of control and 8 % of control | T/C (dose: 3.6 mg/kg/injection, schedule: Q01DX011 (oral), vehicle: saline): 21 % of control | T/C (dose: 5.25 mg/kg/injection, schedule: Q01DX011 (ip), vehicle: saline): 2 % of control and 3 % of control | T/C (dose: 5.25 mg/kg/injection, schedule: Q01DX011 (oral), vehicle: saline): 9 % of control | T/C (dose: 8.0 mg/kg/injection, schedule: Q01DX001 (ip), vehicle: saline): 38 % of control | T/C (dose: 10.5 mg/kg/injection, schedule: Q01DX011 (ip), vehicle: saline): 1 % of control and 2 % of control | T/C (dose: 10.5 mg/kg/injection, schedule: Q01DX011 (oral), vehicle: saline): 2 % of control | T/C (dose: 16.0 mg/kg/injection, schedule: Q01DX001 (ip), vehicle: saline): 57 % of control | T/C (dose: 20.0 mg/kg/injection, schedule: Q01DX011 (ip), vehicle: saline): 31 % of control | T/C (dose: 21.0 mg/kg/injection, schedule: Q01DX011 (ip), vehicle: saline): 2 % of control | T/C (dose: 21.0 mg/kg/injection, schedule: Q01DX011 (oral), vehicle: saline): 1 % of control | T/C (dose: 30.0 mg/kg/injection, schedule: Q01DX011 (ip), vehicle: saline): 14 % of control | T/C (dose: 31.0 mg/kg/injection, schedule: Q01DX001 (ip), vehicle: saline): 29 % of control | T/C (dose: 62.0 mg/kg/injection, schedule: Q01DX001 (ip), vehicle: saline): 38 % of control
